# Experimental data taken from patent US8865737B2, “Antitumor agent for undifferentiated gastric cancer” (Eisai R&D Management Co., Ltd., priority 2006, dated 2014).
# Key:
# SNU-16 [1] = experiment: Cell proliferation, Cell Counting Kit-8; type: cell-based; conditions: Homo sapiens, 72 h; SNU-16, 10% FBS, three days; read-out: inhibition of cell proliferation IC50
# Protocol: (§1) Human undifferentiated gastric cancer cell lines (KATO-III (purchased from ATCC)), SNU-16 (purchased from ATCC) and HSC-39 (purchased from Immuno-Biological Laboratories)) were suspended in RPMI1640 media (purchased from Sigma) containing 10% FBS except that KATO-III was suspended in an RMPI1640 medium containing 1% FBS. The cell suspensions (KATO-III: 6×10^4 cells/mL; SNU-16 and HSC-39: 2×10^4 cells/mL) were placed into a 96-well cell culture plate (purchased from NUNC) at 0.1 mL/well and cultured in a 5% CO2 incubator (37° C.) overnight. Following cultivation, 0.1 mL of the test substance 4-(3-chloro-4-(cyclopropylaminocarbonyl)aminophenoxy)-7-methoxy-6-quinolinecarboxamide (methanesulfonate) diluted in an RPMI1640 medium containing 1% or 10% FBS was added to each well and further cultured in a 5% CO2 incubator (37° C.) for three days. Following cultivation, 20 μL of Cell Counting Kit-8 (purchased from DOJINDO) was added to each well and allowed to develop color in a 5% CO2 incubator (37° C.) to determine (measure) the absorbance of each well by using a plate reader MTP-500 (Corona Electric) at a measurement wavelength of 450 nm and a reference wavelength of 660 nm.
# KATO-III [2] = experiment: Cell proliferation, Cell Counting Kit-8; type: cell-based; conditions: Homo sapiens, 72 h, 1% FBS, three days, read-out: inhibition of cell proliferation IC50
# Protocol: as §1
# HSC-39 [3] = experiment: Cell proliferation, Cell Counting Kit-8; type: cell-based; conditions: Homo sapiens, 72 h; HSC-39, 10% FBS, three days; read-out: inhibition of cell proliferation IC50
# Protocol: as §1
# [4] = biological target: T1, FGFR2 recombinant protein (Homo sapiens, UniProt P21802); experiment: FGFR2 kinase inhibitory activity (cell free kinase assay, Upstate); type: biochemical; conditions: poly(Glu, Tyr)4:1 substrate, [γ-33P]-ATP, 40 minutes at room temperature
# T1 construct: purchased Upstate (UK)
# Protocol: Specifically, the FGFR2 kinase inhibitory activity was measured as follows.
# MgATP was added to 25 μL of solution containing 5-10 mU of FGFR2 recombinant protein, 8 mM MOPS (pH 7.0), 0.2 mM EDTA, 2.5 mM MnCl2, 0.1 mg/ml poly (Glu, Tyr)4:1, 10 mM Mg Acetate, 500 cpm/mol [γ-^33P]-ATP and a test substance to initiate reaction.
# Following 40 minutes of reaction at room temperature, 5 μL of 3% phosphoric acid was added to terminate the reaction. 10 μL of the reaction solution was spotted on Filtermat A, which was washed with 75 mM phosphoric acid for five times and once with ethanol and then dried. The radioactivity of the spot was determined (measured).
# In this regard, a value obtained when substrate Poly(Glu, Tyr)4:1 was contained but not the FGFR2 recombinant protein was assumed 0% value while a value obtained when the FGFR2 recombinant protein and substrate Poly(Glu, Tyr)4:1 were contained but not the test substance was assumed 100% value.
# The kinase activity in the presence of the test substance at each concentration was calculated as percentage of the value obtained by subtracting the 0% value from each radioactivity value to the value obtained by subtracting the 0% value from the 100% value.
# FGFR2 [5] = experiment: FGFR2 phosphorylation in human undifferentiated gastric cancer cell lines (immunoprecipitation, western blotting); type: cell-based; conditions: 1 μM, one hour; KATO-III, SNU-16 and HSC-39 cells (FIG. 1)
# Protocol: Human undifferentiated gastric cancer cell lines (KATO-III (purchased from ATCC)), SNU-16 (purchased from ATCC) and HSC-39 (purchased from Immuno-Biological Laboratories)) were suspended in RPMI1640 media (purchased from Sigma) containing 10% FBS (fetal bovine serum). KATO-III, SNU-16 and HSC-39 are cells showing FGFR2 gene amplification (Laboratory Investigation, 78, 1143-1153, 1998), and are also known as scirrhous gastric cancer cell lines. Each 10 mL of the cell suspensions (5×10^5 cells/mL) was placed into a 75 cm^2 cell culture flask (purchased from FALCON) and cultured in a 5% CO2 incubator (37° C.) overnight. In the case of KATO-III, the medium was replaced by an RMPI1640 medium containing 1% FBS. To this, 10 mL of the test substance 4-(3-chloro-4-(cyclopropylaminocarbonyl)aminophenoxy)-7-methoxy-6-quinolinecarboxamide (methanesulfonate) diluted in RPMI1640 containing 1% or 10% FBS was added and cultured in a 5% CO2 incubator (37° C.) for an hour. The culture solution was collected, each flask was washed with 5 mL PBS, and the mixture of the collected culture and the washing solution was centrifuged at 1,000 rpm, at 4° C. for 5 minutes. […]
# HSC-39 [6] = experiment: Apoptosis of human undifferentiated gastric cancer cell line (PARP / caspase-3 fragmentation, western blotting); type: cell-based; conditions: 1 μM, HSC-39, one or three days (FIG. 2)
# Protocol: Human undifferentiated gastric cancer cell line HSC-39 (purchased from Immuno-Biological Laboratories) was suspended in an RPMI1640 medium (purchased from Sigma) containing 10% FBS. Five mL of the cell suspension (4×10^5 cells/mL) was placed into a […] (purchased from FALCON). To this, 5 mL of the test substance 4-(3-chloro-4-(cyclopropylaminocarbonyl)aminophenoxy)-7-methoxy-6-quinolinecarboxamide (methanesulfonate) diluted in an RPMI1640 medium containing 10% FBS was added and cultured in a 5% CO2 incubator (37° C.) for one or three days. The culture solution was collected and each flask was washed with 5 mL PBS. The mixture of the collected culture solution and the washing solution was centrifuged at 1,000 rpm, at 4° C. for 5 minutes. For precipitation, 100 μL of a lysis buffer (50 mM Hepes (pH 7.4), 150 mM NaCl, 10% (v/v) glycerol, 1% Triton X-100, 1.5 mM MgCl2, 1 mM EDTA (pH 8.0), 100 mM NaF, 1 mM PMSF, 10 μg/mL Aprotinin, 50 μg/mL Leupeptin, 1 μg/mL Pepstatin A, 1 mM Na3VO4) was added to solubilize the cells. This solution was collected and centrifugated at 15,000 rpm, at 4° C. for 15 minutes. An SDS buffer was added to the supernatant to prepare a 25 μg/15 μL solution and the resultant was treated at 94° C. for 5 minutes to solubilize the protein, which was prepared as a cell sample solution. […]
# FGFR2 [7] = experiment: FGFR2 phosphorylation in tumor tissues of subcutaneous transplanted (xenograft) models; type: in vivo, nude mice; conditions: SNU-16 and HSC-39 xenografts, oral 10, 30 or 100 mg/kg, tumors removed two hours after administration (FIG. 4)
# Protocol: Human undifferentiated gastric cancer cell lines (SNU-16 (purchased from ATCC) and HSC-39 (purchased from Immuno-Biological Laboratories) were cultured with RPMI1640 (containing 10% FBS) in a 5% CO2 incubator (37° C.) and cells were collected with trypsin-EDTA according to a conventional method. The cells were suspended in a phosphate buffer to prepare a 5×10^7 cells/mL suspension. Each 0.1 mL of the resulting cell suspensions was subcutaneously transplanted into the side of body of nude mice (purchased from Charles River).
# Following transplantation, the test substance 4-(3-chloro-4-(cyclopropylaminocarbonyl)aminophenoxy)-7-methoxy-6-quinolinecarboxamide (methanesulfonate) dissolved in distilled water for injection (purchased from Otsuka Pharmaceutical) was orally administered at 10, 30 or 100 mg/kg once the tumor volume became (reached) about 400-800 mm^3. Tumors were removed two hours after the administration, to which a lysis buffer (50 mM Hepes (pH 7.4), 150 mM NaCl, 10% (v/v) glycerol, 1% TritonX-100, 1.5 mM MgCl2, 1 mM EDTA (pH 8.0), 100 mM NaF, 1 mM PMSF, 10 μg/mL Aprotinin, 50 μg/mL Leupeptin, 1 μg/mL Pepstatin A, 1 mM Na3VO4) and 25 mM β-glycerophosphate and phosphatase inhibitor cocktail II (SIGMA)) was added for homogenization. The resultant was centrifugated at 15,000 rpm, at 4° C. for 15 minutes. 1000 μg/500 μL of The supernatant was prepared as a tumor extract. […]
# SNU-16 [8] = experiment: Anti-tumor effect, subcutaneous transplanted (xenograft) model; type: in vivo, nude mice; conditions: SNU-16 xenograft, oral 1, 3, 10, 30 or 100 mg/kg once a day, four-weeks schedule (FIG. 3)
# Protocol: (§2) Human undifferentiated gastric cancer cell lines (KATO-III (purchased from ATCC)), SNU-16 (purchased from ATCC) and HSC-39 (purchased from Immuno-Biological Laboratories) were cultured with RPMI1640 (containing 10% FBS) in a 5% CO2 incubator at 37° C. The cells were collected with trypsin-EDTA according to a conventional method. The cells were suspended in a phosphate buffer to prepare a 5×10^7 cells/mL suspension. Each 0.1 mL of the resulting cell suspensions was subcutaneously transplanted into the side of body of nude mice (purchased from Charles River). Following transplantation, the test substance 4-(3-chloro-4-(cyclopropylaminocarbonyl)aminophenoxy)-7-methoxy-6-quinolinecarboxamide (methanesulfonate) dissolved in distilled water for injection (purchased from Otsuka Pharmaceutical) was orally administered at 1, 3, 10, 30 or 100 mg/kg once a day on a four-weeks schedule (except for KATO-III, 30 or 100 mg/kg, once a day, two-weeks schedule) once the tumor volume became (reached) about 100-200 mm^3. The major and minor axes of tumors were measured with Digimatic caliper (Mitsutoyo), and tumor volumes were calculated according to the following formulae. Tumor Volume (TV)=Major axis of tumor (mm)×(Minor axis of tumor)^2 (mm^2)/2
# KATO-III [9] = experiment: as above; type: in vivo, nude mice; conditions: oral 30 or 100 mg/kg once a day, two-weeks schedule (FIG. 3)
# Protocol: as §2
# HSC-39 [10] = experiment: as above; type: in vivo, nude mice; conditions: HSC-39 xenograft, oral 1, 3, 10, 30 or 100 mg/kg once a day, four-weeks schedule (FIG. 3)
# Protocol: as §2
# T1 sequence (P21802 22-821): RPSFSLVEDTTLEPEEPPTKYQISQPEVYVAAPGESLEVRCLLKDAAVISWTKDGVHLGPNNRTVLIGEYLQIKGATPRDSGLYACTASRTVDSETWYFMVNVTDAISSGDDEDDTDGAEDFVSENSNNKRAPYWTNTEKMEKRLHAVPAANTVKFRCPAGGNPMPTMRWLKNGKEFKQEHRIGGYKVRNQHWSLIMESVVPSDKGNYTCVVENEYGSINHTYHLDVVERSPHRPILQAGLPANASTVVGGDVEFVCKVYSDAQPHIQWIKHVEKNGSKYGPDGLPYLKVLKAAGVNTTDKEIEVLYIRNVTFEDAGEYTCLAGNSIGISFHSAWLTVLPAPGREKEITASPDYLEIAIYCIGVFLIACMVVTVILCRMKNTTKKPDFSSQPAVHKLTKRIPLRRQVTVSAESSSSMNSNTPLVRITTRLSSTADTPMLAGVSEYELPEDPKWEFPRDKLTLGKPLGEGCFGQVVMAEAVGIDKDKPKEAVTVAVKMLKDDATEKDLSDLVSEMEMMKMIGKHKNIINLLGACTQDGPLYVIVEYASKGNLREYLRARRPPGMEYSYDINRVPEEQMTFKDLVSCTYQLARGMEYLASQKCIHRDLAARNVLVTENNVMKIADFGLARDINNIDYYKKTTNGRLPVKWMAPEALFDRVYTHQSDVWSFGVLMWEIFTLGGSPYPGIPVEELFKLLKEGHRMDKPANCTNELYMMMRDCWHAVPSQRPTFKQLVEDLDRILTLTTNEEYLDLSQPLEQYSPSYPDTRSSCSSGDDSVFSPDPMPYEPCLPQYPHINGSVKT
compound,measurement,setting,value
COc1cc2nccc(Oc3ccc(NC(=O)NC4CC4)c(Cl)c3)c2cc1C(N)=O [4-(3-chloro-4-(cyclopropylaminocarbonyl)aminophenoxy)-7-methoxy-6-quinolinecarboxamide],IC50,SNU-16 [1],251 nM
same,IC50,KATO-III [2],141 nM
same,IC50,HSC-39 [3],157 nM
same,IC50,[4],< 10 nM
same,phosphorylation of FGFR2,FGFR2 [5],almost completely inhibited
same,cleaved-PARP,HSC-39 [6],clearly detected
same,cleaved-caspase-3,HSC-39 [6],clearly detected
same,phosphorylation of FGFR2 in tumor,FGFR2 [7],inhibit phosphorylation of FGFR2
same,anti-tumor effect (tumor volume),SNU-16 [8],dose-dependent anti-tumor effect
same,anti-tumor effect (tumor volume),KATO-III [9],dose-dependent anti-tumor effect
same,anti-tumor effect (tumor volume),HSC-39 [10],dose-dependent anti-tumor effect
